Where two headings read alike, the source gives them in different places.
Experiments:
[1] = tested on: H3N2 influenza virus A/Hong Kong/68 (HK/68); test: CPE inhibition assay with HK/68 in MDCK cells; assay type: cell-based; settings: for IC50: Influenza A virus; for anti-influenza virus activity (in words): HK/68 and Jena/8178, CPE inhibition in MDCK cells; for selectivity index IAV HK/68 [CC50/IC50]: CC50 in MDCK cells / IC50 HK/68
[2] = tested on: MDCK cells
[3] = tested on: H1N1 influenza virus A/Jena/8178/09 (Jena/8178); test: CPE inhibition assay with Jena/8178 in MDCK cells; assay type: cell-based; settings: for IC50: Influenza A virus, H1N1, MDCK, 48 h, read-out: IC50 of CPE IAV Jena/8178; for selectivity index IAV Jena/8178 [CC50/IC50]: CC50 in MDCK cells / IC50 Jena/8178
[4] = in vitro; settings: dog
[5] = H3N2, MDCK, 48 h, read-out: IC50 of CPE IAV HK/68
[6] = H3N2, HK/68 and Jena/8178 together, CPE inhibition in MDCK cells, read-out: IC50 values, anti-influenza virus activity stated for both strains together
[7] = HK/68 and Jena/8178 together, CPE inhibition in MDCK cells

In the case of CC1(C)C[C@H]2C3=CC[C@@H]4[C@@]5(C)C[C@@H](O)[C@H](O)C(C)(C)[C@@H]5CC[C@@]4(C)[C@]3(C)CC[C@@]2(C(=O)O)C[C@H]1OC(=O)/C=C/c1ccccc1 [21-cinnamoyloxy-maslinic acid], the IC50 [1, 5] is reported as 11.3 ± 7.35 µM, the IC50 [1, 6] is reported as 7 to 11 µM and the “CC50 in MDCK cells” value [2] is reported as “lost their cytotoxicity”. For the same compound, the IC50 [3] was 6.9 ± 2.97 µM and the CC50 at 72 h [4] was greater than 100 µM.
With CC1(C)C[C@H]2C3=CC[C@@H]4[C@@]5(C)CC[C@H](O)C(C)(C)[C@@H]5CC[C@@]4(C)[C@]3(C)CC[C@@]2(C(=O)O)C[C@H]1OC(=O)/C=C/c1ccccc1 [21-cinnamoyloxy-oleanolic acid] the IC50 [1, 5] was 8.9 ± 3.95 µM, the IC50 [1, 6] was 7 to 11 µM and the “CC50 in MDCK cells” value [2] was “lost their cytotoxicity”. For the same compound, the IC50 [3] was 6.8 ± 4.12 µM and the CC50 at 72 h [4] was greater than 100 µM.
For C=C(C)[C@@H]1CC[C@]2(C(=O)O)CC[C@]3(CO)[C@H](CC[C@@H]4[C@@]5(C)C[C@@H](O)[C@H](O)C(C)(C)[C@@H]5CC[C@]43C)[C@@H]12 [27-hydroxyalphitolic acid], the “selectivity index IAV Jena/8178 [CC50/IC50]” value [3] was greater than 4, the IC50 [3] was 26.5 ± 4.71 µM and the CC50 [4] was greater than 100 µM.
With C=C(C)[C@@H]1CC[C@]2(C(=O)O)CC[C@]3(C)[C@H](CC[C@@H]4[C@@]5(C)C[C@@H](O)[C@H](O[C@@H]6O[C@H](CO)[C@@H](O)[C@H](O)[C@H]6O[C@@H]6OC[C@@H](O)[C@H](O)[C@H]6O)C(C)(C)[C@@H]5CC[C@]43C)[C@@H]12 [Compound 1, 3-O-β-D-Xylopyranosyl-(1→2)-β-D-glucopyranosylalphitolic acid] the “anti-influenza virus activity (in words)” value [1] was “only weak or no anti-influenza virus activity”, the IC50 [3] was 38.6 ± 15.7 µM and the CC50 [4] was greater than 100 µM.
For C=C(C)[C@@H]1CC[C@]2(C(=O)O)CC[C@]3(C)[C@H](CC[C@@H]4[C@@]5(C)C[C@@H](O)[C@H](O[C@@H]6O[C@H](CO)[C@@H](O[C@@H]7O[C@H](C)[C@@H](O)[C@H](O)[C@@H]7O)[C@H](O)[C@H]6O[C@@H]6OC[C@@H](O)[C@H](O)[C@H]6O)C(C)(C)[C@@H]5CC[C@]43C)[C@@H]12 [Compound 2, 3-O-β-D-Xylopyranosyl-(1→2)-[α-L-rhamnopyranosyl-(1→4)]-β-D-glucopyranosylalphitolic acid], the “selectivity index IAV HK/68 [CC50/IC50]” value [1] was 11, the IC50 [1, 5] was 1.1 ± 0.44 µM and the “selectivity index IAV Jena/8178 [CC50/IC50]” value [3] was 6. For the same compound, the IC50 [3] was 1.9 ± 0.08 µM and the CC50 at 72 h [4] was 10.4 ± 0.52 µM.
With C=C(C)[C@@H]1CC[C@]2(C(=O)O)CC[C@]3(CO)[C@H](CC[C@@H]4[C@@]5(C)C[C@@H](O)[C@H](O[C@@H]6O[C@H](CO)[C@@H](O)[C@H](O)[C@H]6O[C@@H]6OC[C@@H](O)[C@H](O)[C@H]6O)C(C)(C)[C@@H]5CC[C@]43C)[C@@H]12 [Compound 3, 3-O-β-D-Xylopyranosyl-(1→2)-β-D-glucopyranosyl-27-hydroxyalphitolic acid] the “anti-influenza virus activity (in words)” value [1] was “only weak or no anti-influenza virus activity” and the CC50 [4] was greater than 100 µM.
With C=C(C)[C@@H]1CC[C@]2(C(=O)O)CC[C@]3(CO)[C@H](CC[C@@H]4[C@@]5(C)C[C@@H](O)[C@H](O[C@@H]6O[C@H](CO)[C@@H](O)[C@H](O)[C@H]6O[C@@H]6O[C@H](CO)[C@@H](O)[C@H](O)[C@H]6O)C(C)(C)[C@@H]5CC[C@]43C)[C@@H]12 [Compound 4, 3-O-β-D-Glucopyranosyl-(1→2)-β-D-glucopyranosyl-27-hydroxyalphitolic acid] the “anti-influenza virus activity (in words)” value [1] was “only weak or no anti-influenza virus activity”, the “selectivity index IAV Jena/8178 [CC50/IC50]” value [3] was greater than 2 and the IC50 [3] was 43 ± 11.8 µM. The CC50 [4] was greater than 100 µM.
In the case of C[C@H]1O[C@@H](O[C@H]2[C@H](O)[C@@H](O[C@@H]3OC[C@@H](O)[C@H](O)[C@H]3O)[C@H](O[C@H]3[C@H](O)C[C@]4(C)[C@H]5CC=C6[C@@H]7CC(C)(C)CC[C@]7(C(=O)O)CC[C@@]6(C)[C@]5(C)CC[C@H]4C3(C)C)O[C@@H]2CO)[C@@H](O)[C@@H](O)[C@@H]1O [Compound 5, 3-O-β-D-Xylopyranosyl-(1→2)-[α-L-rhamnopyranosyl-(1→4)]-β-D-glucopyranosylmaslinic acid], the “selectivity index IAV HK/68 [CC50/IC50]” value [1] is reported as 9, the “IC50 values, anti-influenza virus activity stated for both strains together” value [1, 7] is reported as “low micromolar range” and the IC50 [1, 5] is reported as 1.7 ± 0.07 µM. For the same compound, the CC50 at 72 h [4] was 15.5 ± 1.69 µM.
For C[C@H]1O[C@@H](O[C@H]2[C@H](O)[C@@H](O[C@@H]3OC[C@@H](O)[C@H](O)[C@H]3O)[C@H](O[C@H]3[C@H](O)C[C@]4(C)[C@H]5CC=C6[C@@H]7CC(C)(C)[C@H](OC(=O)/C=C/c8ccccc8)C[C@]7(C(=O)O)CC[C@@]6(C)[C@]5(C)CC[C@H]4C3(C)C)O[C@@H]2CO)[C@@H](O)[C@@H](O)[C@@H]1O [Compound 6, 3-O-β-D-Xylopyranosyl-(1→2)-[α-L-rhamnopyranosyl-(1→4)]-β-D-glucopyranosyl-21-cinnamoyloxymaslinic acid], the “selectivity index IAV HK/68 [CC50/IC50]” value [1] was 3, the “IC50 values, anti-influenza virus activity stated for both strains together” value [1, 7] was “low micromolar range” and the IC50 [1, 5] was 1.8 ± 0.23 µM. The “selectivity index IAV Jena/8178 [CC50/IC50]” value [3] was 3, the IC50 [3] was 1.8 ± 0.03 µM and the CC50 at 72 h [4] was 5.8 ± 0.69 µM.
For C[C@H]1O[C@H](O[C@H]2[C@H](O[C@H]3[C@H](O[C@H]4CC[C@]5(C)[C@H]6CC=C7[C@@H]8CC(C)(C)[C@H](OC(=O)/C=C/c9ccccc9)C[C@]8(C(=O)O)CC[C@@]7(C)[C@]6(C)CC[C@H]5C4(C)C)OC[C@@H](O)[C@@H]3O)OC[C@@H](O)[C@@H]2O)[C@@H](O)[C@@H](O)[C@@H]1O [Compound 7, 3-O-α-L-Rhamnopyranosyl-(1→2)-β-D-xylopyranosyl-(1→2)-β-D-xylopyranosyl-21-cinnamoyloxyoleanolic acid], the “selectivity index IAV HK/68 [CC50/IC50]” value [1] was 31, the IC50 [1, 5] was 0.05 ± 0.02 µM and the IC50 [1, 6] was 0.05 to 0.27 µM. For the same compound, the “selectivity index IAV Jena/8178 [CC50/IC50]” value [3] was 6, the IC50 [3] was 0.27 ± 0.13 µM and the CC50 at 72 h [4] was 1.5 ± 0.8 µM.
With C[C@H]1O[C@H](O[C@@H]2CO[C@@H](O[C@H]3CC[C@]4(C)[C@H]5CC=C6[C@@H]7CC(C)(C)[C@H](OC(=O)/C=C/c8ccccc8)C[C@]7(C(=O)O)CC[C@@]6(C)[C@]5(C)CC[C@H]4C3(C)C)[C@H](O[C@@H]3OC[C@@H](O)[C@H](O)[C@H]3O[C@H]3O[C@H](C)[C@@H](O)[C@H](O)[C@@H]3O)[C@H]2O)[C@@H](O)[C@@H](O)[C@@H]1O [Compound 8, 3-O-α-L-Rhamnopyranosyl-(1 →2)-β-D-xylopyranosyl-(1 →2)-[α-L-rhamnopyranosyl-(1 →4)]-β-D-xylopyranosyl-21-cinnamoyloxyoleanolic acid] the “selectivity index IAV HK/68 [CC50/IC50]” value [1] was 7, the IC50 [1, 5] was 0.17 ± 0.18 µM and the IC50 [1, 6] was 0.05 to 0.27 µM. The “selectivity index IAV Jena/8178 [CC50/IC50]” value [3] was 7, the IC50 [3] was 0.16 ± 0.07 µM and the CC50 at 72 h [4] was 1.2 ± 0.1 µM.
C=C(C)[C@@H]1CC[C@]2(C(=O)O)CC[C@]3(C)[C@H](CC[C@@H]4[C@@]5(C)C[C@@H](O)[C@H](O)C(C)(C)[C@@H]5CC[C@]43C)[C@@H]12 [alphitolic acid] gave a CC50 at 72 h [4] of 49.9 ± 6.68 µM.
CC1(C)CC[C@]2(C(=O)O)CC[C@]3(C)C(=CC[C@@H]4[C@@]5(C)C[C@@H](O)[C@H](O)C(C)(C)[C@@H]5CC[C@]43C)[C@@H]2C1 [maslinic acid] gave a CC50 at 72 h [4] of 23.3 ± 2.93 µM.
In the case of CCOC(=O)C1=C[C@@H](OC(CC)CC)[C@H](NC(C)=O)[C@@H](N)C1 [oseltamivir, reference compound], the IC50 [1, 5] is reported as 0.003 ± 0.001 µM and the IC50 [3] is reported as 0.064 ± 0.013 µM.

Reference: publication PMC5869419 (Journal of Natural Products, 2018)
